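Compound exposure: 48 hours, 5 concentrations, 96-well plates. The concentration for full growth arrest is given as TGI.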
Legend:
Assay in all cases: NCI tumour cell line growth inhibition, 48 h
[1] = tested on: HCC-2998 colon
[2] = tested on: ACHN renal
[3] = tested on: HOP-92 NSCLC
[4] = tested on: SK-MEL-5 melanoma
[5] = tested on: SNB-19 CNS
[6] = tested on: UO-31 renal
[7] = tested on: HCT-116 colon
[8] = tested on: DMS 273 small cell lung
[9] = tested on: MOLT-4 leukemia
[10] = tested on: IGROV1 ovarian
[11] = tested on: M14 melanoma
[12] = tested on: UACC-62 melanoma
[13] = tested on: RPMI-8226 leukemia
[14] = tested on: NCI-H460 lung
[15] = tested on: SF-295 CNS
[16] = tested on: HCT-15 colon
[17] = tested on: OVCAR-5 ovarian
[18] = tested on: CAKI-1 renal
[19] = tested on: SN12C renal
[20] = tested on: SK-MEL-2 melanoma
[21] = tested on: KM12 colon
[22] = tested on: SF-268 CNS
[23] = tested on: EKVX NSCLC
[24] = tested on: K-562 leukemia
[25] = tested on: SNB-78 CNS
[26] = tested on: HT29 colon
[27] = tested on: DLD-1 colon
[28] = tested on: SW-620 colon
[29] = tested on: HL-60(TB) leukemia
[30] = tested on: LOX IMVI melanoma
[31] = tested on: HOP-18 NSCLC
[32] = tested on: A549 NSCLC
[33] = tested on: OVCAR-3 ovarian
[34] = tested on: CCRF-CEM leukemia
[35] = tested on: U251 CNS
[36] = tested on: OVCAR-8 ovarian
[37] = tested on: DMS 114 small cell lung
[38] = tested on: 786-0 renal
[39] = tested on: COLO 205 colon
[40] = tested on: NCI-H226 lung
[41] = tested on: RXF 393 renal
[42] = tested on: KM20L2 colon
[43] = tested on: SF-539 CNS
[44] = tested on: OVCAR-4 ovarian
[45] = tested on: UACC-257 melanoma
[46] = tested on: A498 renal
[47] = tested on: MALME-3M melanoma
[48] = tested on: LXFL 529 NSCLC
[49] = tested on: M19-MEL melanoma
[50] = tested on: SR leukemia
[51] = tested on: SK-OV-3 ovarian
[52] = tested on: NCI-H23 lung
[53] = tested on: NCI-H522 lung
[54] = tested on: TK-10 renal
[55] = tested on: SNB-75 CNS
[56] = tested on: SK-MEL-28 melanoma

O=S1(=O)NNC(=NCc2ccc(Cl)c(Cl)c2)c2ccccc21 gave a TGI [1] of over 100 µM, a TGI [2] of over 100 µM and a TGI [3] of over 100 µM. The TGI [4] was over 100 µM, the TGI [5] was over 100 µM and the TGI [6] was over 100 µM. The TGI [7] was over 100 µM, the TGI [8] was over 100 µM and the TGI [9] was 98.8 µM. It also gave a TGI [10] of over 100 µM, a TGI [11] of over 100 µM and a TGI [12] of over 100 µM. For the same molecule, the TGI [13] was 61 µM, the TGI [14] was over 100 µM and the TGI [15] was over 100 µM. The TGI [16] was over 100 µM, the TGI [17] was over 100 µM and the TGI [18] was over 100 µM. The TGI [19] was over 100 µM, the TGI [20] was over 100 µM and the TGI [21] was over 100 µM. The TGI [22] was over 100 µM, the TGI [23] was over 100 µM and the TGI [24] was over 100 µM. The TGI [25] was over 100 µM, the TGI [26] was over 100 µM and the TGI [27] was over 100 µM. It also gave a TGI [28] of over 100 µM, a TGI [29] of over 100 µM and a TGI [30] of over 100 µM. The TGI [31] was over 100 µM, the TGI [32] was over 100 µM and the TGI [33] was over 100 µM. The TGI [34] was 81 µM, the TGI [35] was over 100 µM and the TGI [36] was over 100 µM. The TGI [37] was over 100 µM, the TGI [38] was over 100 µM and the TGI [39] was over 100 µM. The TGI [40] was over 100 µM, the TGI [41] was over 100 µM and the TGI [42] was over 100 µM. It also gave a TGI [43] of over 100 µM, a TGI [44] of over 100 µM and a TGI [45] of over 100 µM. The TGI [46] was over 100 µM, the TGI [47] was over 100 µM and the TGI [48] was over 100 µM. For the same molecule, the TGI [49] was over 100 µM and the TGI [50] was 47.1 µM.
Molecule COc1cc2cc[n+](C)c(Cc3ccccc3)c2cc1OC has a TGI [2] of over 100 µM, a TGI [3] of over 100 µM and a TGI [4] of over 100 µM. For the same molecule, the TGI [5] was over 100 µM, the TGI [6] was over 100 µM and the TGI [7] was over 100 µM. For the same molecule, the TGI [8] was over 100 µM, the TGI [9] was over 100 µM and the TGI [10] was over 100 µM. For the same molecule, the TGI [11] was over 100 µM, the TGI [12] was over 100 µM and the TGI [13] was over 100 µM. It also gave a TGI [14] of over 100 µM, a TGI [15] of over 100 µM and a TGI [51] of over 100 µM. For the same molecule, the TGI [16] was over 100 µM, the TGI [17] was over 100 µM and the TGI [19] was over 100 µM. For the same molecule, the TGI [20] was over 100 µM, the TGI [21] was over 100 µM and the TGI [22] was over 100 µM. The TGI [23] was over 100 µM, the TGI [24] was over 100 µM and the TGI [25] was over 100 µM. It also gave a TGI [52] of over 100 µM, a TGI [26] of over 100 µM and a TGI [28] of over 100 µM. The TGI [30] was over 100 µM, the TGI [31] was over 100 µM and the TGI [32] was over 100 µM. It also gave a TGI [33] of over 100 µM, a TGI [34] of over 100 µM and a TGI [35] of over 100 µM. It also gave a TGI [36] of over 100 µM, a TGI [37] of over 100 µM and a TGI [38] of over 100 µM. For the same molecule, the TGI [39] was over 100 µM, the TGI [40] was over 100 µM and the TGI [41] was over 100 µM. It also gave a TGI [42] of over 100 µM, a TGI [43] of over 100 µM and a TGI [44] of over 100 µM. For the same molecule, the TGI [45] was over 100 µM, the TGI [46] was over 100 µM and the TGI [47] was over 100 µM. The TGI [53] was over 100 µM, the TGI [48] was over 100 µM and the TGI [54] was over 100 µM. The TGI [55] was over 100 µM, the TGI [49] was over 100 µM and the TGI [56] was over 100 µM.
